Data on four molecules can be found in patent US20070104780A1, “Formulation comprising a drug of low water solubility and method of use thereof” (priority 2005, published 2007).

Assay type in all cases: physicochemical
Data set [1] is described as follows: Aqueous solubility of the drugs. The source says:
It will be recognized that aqueous solubility of many drugs is pH dependent; in the case of such drugs the solubility of interest herein is at a physiologically relevant pH, for example a pH of about 1 to about 8.

The nature of data set [2]: Solubility of ABT-102 in various carriers (Example 14). Particulars: thermodynamic from solid, room temperature, read-out: Solubility (S). As for the experimental part:
An accurately weighed quantity of about 1 g of each excipient was weighed into three glass vials. Semisolid excipients were warmed in a water bath at around 50-60° C. until completely melted before weighing. An accurately weighed quantity of ABT-102 of about 25 mg, 50 mg and 100 mg was weighed into each of the three vials containing the same excipients. The vials were closed tightly and mixed for around 30 seconds by vortexing and then sonicating in a warm water bath. The vials were visually observed for dissolution after 5-6 hours. Solubility is reported in Table 11 below based on volume of carrier providing a clear solution and volume of carrier where solid was present. All solubility values were determined at room temperature.

The nature of data set [3]: Screening of carriers for solubility of ABT-869 (Example 1). Particulars: thermodynamic from solid, room temperature, read-out: Solubility (S). On the procedure:
Approximately 20 mg of ABT-869 was weighed and added to a 0.3 ml vial. A test carrier (100 μl) was then added by pipette to the vial. The vial was three times alternately vortexed for about 30 seconds and sonicated for about 1 minute to ensure adequate wetting and dispersion of the ABT-869. The vial was wrapped in aluminum foil, placed in a Labquake™ rotator and rotated for a minimum of 24 hours. […] If solid was still present, carrier was added until all solid had dissolved and the resulting solution was clear. Approximate solubility is reported in Table 1 below as a range based on volume of carrier providing a clear solution and volume of carrier where solid was present. All solubility values were determined at room temperature.

The nature of data set [4]: Solubility of ABT-869 in carriers comprising Phosal 53 MCT (Example 2, HPLC). Particulars: 25° C. As for the experimental part:
Solubility of ABT-869 was measured in various carriers comprising Phosal 53 MCT™. Approximately 100-400 mg of ABT-869 was weighed and added to a 4 ml glass vial, to which 2 ml of a test carrier was added. The vial was then vortexed and sonicated for 10 minutes. The vials were wrapped with aluminum foil, placed in a water bath at 25° C. and agitated for 2 days. The contents of the vials were then filtered and the filtrate diluted 25× with mobile phase for HPLC analysis.

A short description of data set [5]: Solubility of isotretinoin in Phosal 53 MCT and typical solvents (Example 11).
A short description of data set [6]: Solubility of paricalcitol in various carriers (Example 13).

Structures are written as SMILES. Values after ≈ are worked out from the molar mass of the structure shown.

In the case of `CC(C)(C)c1ccc2c(c1)CC[C@H]2NC(=O)Nc1cccc2[nH]ncc12` [ABT-102], the solubility was roughly 0.102 µg/mL (≈ 0.000293 mM) in data set [1] (water, pH 1.1, simulated gastric fluid, read-out: solubility in water); roughly 0.0573 µg/mL (≈ 0.000164 mM) in data set [1] (water, pH 6.8, aqueous buffer, read-out: solubility in water); 25 to 50 mg/mL (≈ 71.7 to 143 mM) in data set [2] (oil or lipid, carrier Gelucire 44/14); 50 to 100 mg/mL (≈ 143 to 287 mM) in data set [2] (oil or lipid, carrier Phosal 50 PG); 50 to 100 mg/mL (≈ 143 to 287 mM) in data set [2] (oil or lipid, carrier Phosal 53 MCT); less than 200 mg/mL in data set [2] (oil or lipid, carrier Vit.E TPGS). The solubility in data set [2] (organic solvent or mixture, carrier PEG 400) was 71 mg/mL (≈ 204 mM); in data set [2] (organic solvent or mixture, carrier VP Dimer (VPD)), 160 mg/mL (≈ 459 mM).
With `Cc1ccc(F)c(NC(=O)Nc2ccc(-c3cccc4[nH]nc(N)c34)cc2)c1` [ABT-869, N-[4-(3-amino-1H-indazol-4-yl)phenyl]-N′-(2-fluoro-5-methylphenyl)urea], the solubility in data set [3] (oil or lipid, carrier 10% ethanol, 90% Phosal 50 PG) is 50 to 67 mg/mL (≈ 133 to 178 mM); in data set [3] (oil or lipid, carrier 10% ethanol, 90% Phosal 53 MCT), 67 to 100 mg/mL (≈ 178 to 266 mM); in data set [3] (oil or lipid, carrier 100% Captex 355 EP), less than 50 mg/mL; in data set [3] (organic solvent or mixture, carrier 10% ethanol, 20% polysorbate 80, 70% PEG 400), greater than 200 mg/mL; in data set [3] (organic solvent or mixture, carrier 10% ethanol, 30% Phosal 50 PG, 60% PEG 400), greater than 200 mg/mL; in data set [3] (organic solvent or mixture, carrier 10% ethanol, 90% PEG 400) it was greater than 200 mg/mL. In addition, the solubility in data set [3] (organic solvent or mixture, carrier 100% PEG 400) is greater than 200 mg/mL; in data set [1] (pH 1, simulated gastric fluid), roughly 1.7 µg/mL (≈ 0.00453 mM); in data set [1] (pH 5, aqueous buffer) it was roughly 0.027 µg/mL (≈ 7.19e-05 mM); in data set [4] (carrier 5% ethanol, 95% Phosal 53 MCT), 115 mg/g; in data set [4] (carrier 10% PEG 400, 0.5% Tween 80, 4.5% ethanol, 85% Phosal 53 MCT), greater than 122 mg/g; in data set [4] (carrier 10% PEG 400, 5% ethanol, 85% Phosal 53 MCT) it was greater than 123 mg/g. Further, the solubility is given as 139 mg/g in data set [4] (carrier 10% PEG 400, 90% Phosal 53 MCT); 97 mg/g in data set [4] (carrier 10% ethanol, 90% Phosal 53 MCT); 166 mg/g in data set [4] (carrier 20% PEG 400, 80% Phosal 53 MCT); 185 mg/g in data set [4] (carrier 30% PEG 400, 70% Phosal 53 MCT); 199 mg/g in data set [4] (carrier 40% PEG 400, 60% Phosal 53 MCT); 221 mg/g in data set [4] (carrier 50% PEG 400, 50% Phosal 53 MCT). This molecule returned a solubility in data set [4] (carrier 100% Phosal 53 MCT) of 95 mg/g.
As to `CC1=C(/C=C/C(C)=C/C=C/C(C)=C\C(=O)O)C(C)(C)CCC1` [Isotretinoin], the solubility limit in data set [5] (in Phosal 53 MCT at 25° C.) fell in the range of 72 to 78 mg/g. In addition, the solubility is 5.1 mg/g in data set [5] (in caprylic/capric triglycerides); 16.7 mg/g in data set [5] (in ethanol); 19.1 mg/g in data set [5] (in oleic acid); 2.4 mg/g in data set [5] (in soybean oil); roughly 5 µg/mL (≈ 0.0166 mM) in data set [1].
Turning to `C[C@H](/C=C/[C@H](C)C(C)(C)O)[C@H]1CC[C@H]2/C(=C/C=C3C[C@@H](O)C[C@H](O)C3)CCC[C@]12C` [paricalcitol], the “Solubility (mean of 2 tests)” value in data set [6] (carrier 10% hydroxypropyl-β-cyclodextrin in PEG) was 734 µg/g; in data set [6] (carrier Neobee M5 + 0.5% ethanol), 194 µg/g; in data set [6] (carrier PEG 400), 1,085 μg/g; in data set [6] (carrier Phosal 50 SA), 752 µg/g; in data set [6] (carrier Phosal 53 MCT), 1,459 μg/g; in data set [6] (carrier castor oil) it was 344 µg/g. Also, the “Solubility (mean of 2 tests)” value was 1,067 μg/g in data set [6] (carrier glyceryl monooleate); 5,057 μg/g in data set [6] (carrier medium chain monoglycerides (Capmul MCM)); 165 µg/g in data set [6] (carrier medium chain triglycerides (Neobee M5)); 819 µg/g in data set [6] (carrier oleic acid); 1,353 μg/g in data set [6] (carrier polysorbate 80 (Tween 80)); 5,791 μg/g in data set [6] (carrier propylene glycol). In addition, the “Solubility (mean of 2 tests)” value in data set [6] (carrier triethyl citrate) was determined as 453 µg/g. The same molecule displayed a solubility in data set [1] (pH 7.4, aqueous buffer) of 0.0115 µg/mL (≈ 2.76e-05 mM).
